System: GA-primed murine splenocytes
Assay: ANOVA-based pattern identification method
Type: cell-based, mouse
Text: We sought to identify probes matching specific patterns of expression across experimental conditions using a technique that referred to as the ANOVA-based Pattern Identification Method.
To carry out the analysis in a general manner, we computed the 6 p-values required to do pairwise comparisons of all 4 conditions for all probes using the ANOVA1 function in MATLAB. We then identified sets of probes matching the desired pattern. In the example above, probes were identified as being only affected by PG if their 6 pairwise comparison pvalues matched the following pattern (pGA-PG<0.05, pPG-reference standard<0.05, pPG-Medium<0.05, pGAMedium>0.05, pGA-reference standard>0.05, preference standard-Medium>0.05).

glatiramer acetate [GA] gave an FYB expression level (UP IN GA AND REF ONLY) of 8.25, a GNL3L expression level (UP IN GA AND REF ONLY) of 7.689 and a GPC3 expression level (UP IN GA AND REF ONLY) of 5.696. The GPI1 expression level (UP IN GA AND REF ONLY) was 11.7829, the GREM2 expression level (UP IN GA AND REF ONLY) was 6.036 and the GTF3C5 expression level (UP IN GA AND REF ONLY) was 5.928. The GTL7 expression level (UP IN GA AND REF ONLY) was 7.434, the H2-T23 expression level (UP IN GA AND REF ONLY) was 10.78 and the H2AFZ expression level (UP IN GA AND REF ONLY) was 11.93. For the same substance, the HEATR3 expression level (UP IN GA AND REF ONLY) was 5.853, the HIST1H2AG expression level (UP IN GA AND REF ONLY) was 10.07 and the HIST1H2AK expression level (UP IN GA AND REF ONLY) was 12.78. The HNRNPK expression level (UP IN GA AND REF ONLY) was 10.05, the IL1F10 expression level (UP IN GA AND REF ONLY) was 6.065 and the INPP4B expression level (UP IN GA AND REF ONLY) was 6.314. For the same substance, the KLRA1 expression level (UP IN GA AND REF ONLY) was 5.834, the KRT25 expression level (UP IN GA AND REF ONLY) was 5.8 and the LOC235279 expression level (UP IN GA AND REF ONLY) was 5.818. The LOC244219 expression level (UP IN GA AND REF ONLY) was 5.958, the LOC331243 expression level (UP IN GA AND REF ONLY) was 5.641 and the LOC380707 expression level (UP IN GA AND REF ONLY) was 10.02. For the same substance, the LOC381093 expression level (UP IN GA AND REF ONLY) was 5.885, the LOC383306 expression level (UP IN GA AND REF ONLY) was 5.921 and the LOC383433 expression level (UP IN GA AND REF ONLY) was 5.667. For the same substance, the LOC383706 expression level (UP IN GA AND REF ONLY) was 8.36, the LOC384585 expression level (UP IN GA AND REF ONLY) was 5.764 and the LOC384990 expression level (UP IN GA AND REF ONLY) was 5.909. The LOC386161 expression level (UP IN GA AND REF ONLY) was 5.652, the LOC628101 expression level (UP IN GA AND REF ONLY) was 6.566 and the LOC667005 expression level (UP IN GA AND REF ONLY) was 7.02. The LOC100040244 expression level (UP IN GA AND REF ONLY) was 7.257, the LOC100040854 expression level (UP IN GA AND REF ONLY) was 5.619 and the LOC100041450 expression level (UP IN GA AND REF ONLY) was 6.953. It also gave an LOC100043391 expression level (UP IN GA AND REF ONLY) of 14.29, an LOC100044190 expression level (UP IN GA AND REF ONLY) of 10.67 and an LOC100046320 expression level (UP IN GA AND REF ONLY) of 7.704. The LOC100047009 expression level (UP IN GA AND REF ONLY) was 6.027, the LOC100048816 expression level (UP IN GA AND REF ONLY) was 5.928 and the LSG1 expression level (UP IN GA AND REF ONLY) was 7.278. It also gave an MAD2L1BP expression level (UP IN GA AND REF ONLY) of 9.971, an MIER2 expression level (UP IN GA AND REF ONLY) of 5.885 and an MX2 expression level (UP IN GA AND REF ONLY) of 8.083. It also gave an MYNN expression level (UP IN GA AND REF ONLY) of 5.819, an NCDN expression level (UP IN GA AND REF ONLY) of 5.87 and an NEO1 expression level (UP IN GA AND REF ONLY) of 6.159. It also gave an NPC2 expression level (UP IN GA AND REF ONLY) of 9.575, an NUDCD2 expression level (UP IN GA AND REF ONLY) of 7.102 and an OLFR701 expression level (UP IN GA AND REF ONLY) of 5.738. The OS9 expression level (UP IN GA AND REF ONLY) was 9.621, the OTTMUSG00000005523 expression level (UP IN GA AND REF ONLY) was 6.96 and the PARP14 expression level (UP IN GA AND REF ONLY) was 11.13. It also gave a PCDHGC5 expression level (UP IN GA AND REF ONLY) of 6.075, a PDIA2 expression level (UP IN GA AND REF ONLY) of 5.846 and a PDLIM1 expression level (UP IN GA AND REF ONLY) of 9.528. The PIBF1 expression level (UP IN GA AND REF ONLY) was 6.957, the PIGN expression level (UP IN GA AND REF ONLY) was 5.83 and the PJA1 expression level (UP IN GA AND REF ONLY) was 6.736. It also gave a PK3 expression level (UP IN GA AND REF ONLY) of 6.316, a PLEKHF2 expression level (UP IN GA AND REF ONLY) of 8.247 and a PLXNC1 expression level (UP IN GA AND REF ONLY) of 6.506. For the same substance, the PPP1CB expression level (UP IN GA AND REF ONLY) was 7.717, the PPP2R5C expression level (UP IN GA AND REF ONLY) was 10.04 and the PSEN2 expression level (UP IN GA AND REF ONLY) was 5.995. For the same substance, the PTPN1 expression level (UP IN GA AND REF ONLY) was 9.292, the PUM2 expression level (UP IN GA AND REF ONLY) was 8.717 and the RAB6 expression level (UP IN GA AND REF ONLY) was 7.499. It also gave an RAB33A expression level (UP IN GA AND REF ONLY) of 6.093, an RBM14 expression level (UP IN GA AND REF ONLY) of 6.157 and an RN185 expression level (UP IN GA AND REF ONLY) of 9.959. It also gave an RNF8 expression level (UP IN GA AND REF ONLY) of 6.852, an RNF19A expression level (UP IN GA AND REF ONLY) of 5.962 and an RNGTT expression level (UP IN GA AND REF ONLY) of 6.302. The RPL37 expression level (UP IN GA AND REF ONLY) was 5.765, the SAMHD1 expression level (UP IN GA AND REF ONLY) was 12.05 and the SCL0002368.1_75 expression level (UP IN GA AND REF ONLY) was 9.053. For the same substance, the SELP expression level (UP IN GA AND REF ONLY) was 6.569, the SLC30A8 expression level (UP IN GA AND REF ONLY) was 5.652 and the SLCO3A1 expression level (UP IN GA AND REF ONLY) was 6.151. It also gave an SLFN9 expression level (UP IN GA AND REF ONLY) of 5.598, an SPNB2 expression level (UP IN GA AND REF ONLY) of 5.753 and an STAT3 expression level (UP IN GA AND REF ONLY) of 11.07. It also gave an STIL expression level (UP IN GA AND REF ONLY) of 5.727, a TELO2 expression level (UP IN GA AND REF ONLY) of 5.873 and a TMPO expression level (UP IN GA AND REF ONLY) of 8.63. It also gave a TNP2 expression level (UP IN GA AND REF ONLY) of 5.959, a TOP2A expression level (UP IN GA AND REF ONLY) of 7.085 and a TOR1A expression level (UP IN GA AND REF ONLY) of 7.512. For the same substance, the TPM4 expression level (UP IN GA AND REF ONLY) was 7.481, the TRAPPC2 expression level (UP IN GA AND REF ONLY) was 5.833 and the TRMT2A expression level (UP IN GA AND REF ONLY) was 6.694. It also gave a TSPAN14 expression level (UP IN GA AND REF ONLY) of 9.848, a TTLL4 expression level (UP IN GA AND REF ONLY) of 5.973 and a UBE2Z expression level (UP IN GA AND REF ONLY) of 6.169. For the same substance, the USF1 expression level (UP IN GA AND REF ONLY) was 6.915, the V1RD18 expression level (UP IN GA AND REF ONLY) was 5.691 and the VMN2R81 expression level (UP IN GA AND REF ONLY) was 5.992. The VMN2R89 expression level (UP IN GA AND REF ONLY) was 6.242, the VPS37B expression level (UP IN GA AND REF ONLY) was 10.56 and the WAPAL expression level (UP IN GA AND REF ONLY) was 6.423. The WDR45L expression level (UP IN GA AND REF ONLY) was 7.365, the ZDHHC21 expression level (UP IN GA AND REF ONLY) was 8.562 and the ZFP277 expression level (UP IN GA AND REF ONLY) was 9.951. The ZFP281 expression level (UP IN GA AND REF ONLY) was 8.974, the ZFP800 expression level (UP IN GA AND REF ONLY) was 6.783 and the ZNF24 expression level (UP IN GA AND REF ONLY) was 6.171. The ZWILCH expression level (UP IN GA AND REF ONLY) was 6.29, the ZZZ3 expression level (UP IN GA AND REF ONLY) was 6.181 and the 5YNGR1 expression (UP IN generic ONLY) was 5.954. It also gave a 1200003C05RIK expression (UP IN generic ONLY) of 9.103, a 1200011M11RIK expression (UP IN generic ONLY) of 6.322 and a 1700021P22RIK expression (UP IN generic ONLY) of 6.037. It also gave a 1700029G01RIK expression (UP IN generic ONLY) of 6.738, a 1700063H04RIK expression (UP IN generic ONLY) of 5.82 and a 2210010L05RIK expression (UP IN generic ONLY) of 5.598. For the same substance, the 2310046A06RIK expression (UP IN generic ONLY) was 5.634, the 2310051M13RIK expression (UP IN generic ONLY) was 5.609 and the 2600005J22RIK expression (UP IN generic ONLY) was 5.732. It also gave a 2610209A20RIK expression (UP IN generic ONLY) of 6.008, a 2810046M22RIK expression (UP IN generic ONLY) of 5.995 and a 2810453I06RIK expression (UP IN generic ONLY) of 8.506. It also gave a 2900090M10RIK expression (UP IN generic ONLY) of 5.695, a 3110070M22RIK expression (UP IN generic ONLY) of 6.16 and a 4930430K04RIK expression (UP IN generic ONLY) of 5.499. It also gave a 4930432K21RIK expression (UP IN generic ONLY) of 6.593, a 4930471I01RIK expression (UP IN generic ONLY) of 5.854 and a 4930481A15RIK expression (UP IN generic ONLY) of 5.879. For the same substance, the 4930543G11RIK expression (UP IN generic ONLY) was 5.775.
